Results from PMC12529880, “Structural mechanisms for cold‐adapted activity of phosphoenolpyruvate carboxykinase” (Protein Science : A Publication of the Protein Society, 2025).

What was measured:
Assay type in all cases: binding
[1] = biological target: T1, PnPEPCK (Polaromonas naphthalenivorans, UniProt A1VIE9); test: X-ray crystal structure
T1 construct: gene pckG; full length, 622 residues, N-terminal His6-SUMO tag cleaved off with no additional amino acids; codon-optimised gene in pESUMO-Star; E. coli BL21(DE3); EC 4.1.1.32

[2] = biological target: T2, rcPEPCK (Rattus norvegicus, UniProt P07379); test: differential scanning fluorimetry (SYPRO Orange); details: reference is the Mn-only enzyme, 21.4 μM enzyme, 1 mM MnCl2, 25 mM HEPES pH 7.4
T2 construct: gene Pck1; full length, 622 residues, SUMO tag removed by SUMO protease; E. coli BL21(DE3)
T2 sequence (P07379 1-622): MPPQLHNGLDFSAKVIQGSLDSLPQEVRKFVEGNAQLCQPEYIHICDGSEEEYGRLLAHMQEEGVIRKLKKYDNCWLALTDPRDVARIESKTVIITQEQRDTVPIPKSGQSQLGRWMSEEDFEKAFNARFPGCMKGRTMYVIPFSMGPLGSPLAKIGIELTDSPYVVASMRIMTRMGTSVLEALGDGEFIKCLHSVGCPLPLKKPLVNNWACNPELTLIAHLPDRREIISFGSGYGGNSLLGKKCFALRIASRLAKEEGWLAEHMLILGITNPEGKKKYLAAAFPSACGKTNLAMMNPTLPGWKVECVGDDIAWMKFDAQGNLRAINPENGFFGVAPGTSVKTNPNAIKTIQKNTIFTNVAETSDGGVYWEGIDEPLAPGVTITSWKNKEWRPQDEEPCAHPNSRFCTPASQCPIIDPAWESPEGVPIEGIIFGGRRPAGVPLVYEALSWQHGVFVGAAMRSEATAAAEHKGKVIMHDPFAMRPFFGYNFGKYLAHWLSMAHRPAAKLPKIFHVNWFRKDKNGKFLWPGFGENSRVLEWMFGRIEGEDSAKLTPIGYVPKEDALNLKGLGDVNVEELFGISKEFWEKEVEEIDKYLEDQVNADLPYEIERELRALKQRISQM
Text: differential scanning fluorimetry (SYPRO Orange) on rcPEPCK

[3] = biological target: T1, PnPEPCK; test: differential scanning fluorimetry (SYPRO Orange); details: reference is the Mn-only enzyme, 21.4 μM enzyme, 1 mM MnCl2, 25 mM HEPES pH 7.4
Text: differential scanning fluorimetry (SYPRO Orange) on PnPEPCK

[4] = absolute TM of Mn-GTP complex, 214 μM GTP
[5] = absolute TM of Mn-oxalate complex, 214 μM oxalate

T1 sequence (A1VIE9 entry or part of it): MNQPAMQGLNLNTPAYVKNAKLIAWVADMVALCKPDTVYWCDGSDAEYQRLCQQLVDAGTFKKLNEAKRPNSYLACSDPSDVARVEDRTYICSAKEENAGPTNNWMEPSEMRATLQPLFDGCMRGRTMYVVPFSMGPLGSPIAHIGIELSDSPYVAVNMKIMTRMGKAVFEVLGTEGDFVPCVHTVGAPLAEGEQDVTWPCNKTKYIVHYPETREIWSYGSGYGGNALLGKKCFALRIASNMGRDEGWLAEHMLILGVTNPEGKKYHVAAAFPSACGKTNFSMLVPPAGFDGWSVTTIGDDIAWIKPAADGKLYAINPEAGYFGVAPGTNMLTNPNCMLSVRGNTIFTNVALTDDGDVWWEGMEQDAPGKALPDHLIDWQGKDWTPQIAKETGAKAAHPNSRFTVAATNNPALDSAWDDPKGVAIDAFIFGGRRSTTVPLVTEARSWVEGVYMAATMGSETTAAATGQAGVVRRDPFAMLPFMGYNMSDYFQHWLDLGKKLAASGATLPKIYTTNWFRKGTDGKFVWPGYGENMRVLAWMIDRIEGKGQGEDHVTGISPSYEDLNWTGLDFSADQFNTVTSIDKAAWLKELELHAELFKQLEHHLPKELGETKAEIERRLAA

For `Nc1nc2c(ncn2[C@@H]2O[C@H](COP(=O)(O)OP(=O)(O)O)[C@@H](O)[C@H]2O)c(=O)[nH]1` [GDP], the X-ray crystal structure ([1]; ternary complex with PGA, closed) was “All three ternary complexes (βSP‐GTP, oxalate‐GTP, and PGA‐GDP)”.

With `Nc1nc2c(ncn2[C@@H]2O[C@H](COP(=O)(O)OP(=O)(O)OP(=O)(O)O)[C@@H](O)[C@H]2O)c(=O)[nH]1` [GTP] the X-ray crystal structure ([1]; ternary complexes with βSP or oxalate, closed) was “All three ternary complexes (βSP‐GTP, oxalate‐GTP, and PGA‐GDP)”, the “rcPEPCK / T M (°C)” value [2, 4] was 61.4 °C and the “PnPEPCK / T M (°C)” value [3, 4] was 59.5 °C.

With `C=C(OP(=O)(O)O)C(=O)O` [PEP] the X-ray crystal structure ([1]; binary Mn2+ complex, open, P2_12_12_1 and C222_1 crystals) was “both with PEP bound at the active site”.

In the case of `O=C(O)COP(=O)(O)O` [PGA], the X-ray crystal structure ([1]; PEP analogue, ternary complex with GDP, closed) is reported as “All three ternary complexes (βSP‐GTP, oxalate‐GTP, and PGA‐GDP)”.

For `O=C(O)C(=O)O` [oxalate], the X-ray crystal structure ([1]; enol-pyruvate mimic, ternary complex with GTP, closed) was “All three ternary complexes (βSP‐GTP, oxalate‐GTP, and PGA‐GDP)”, the “rcPEPCK / T M (°C)” value [2, 5] was 54.4 °C and the “PnPEPCK / T M (°C)” value [3, 5] was 46.3 °C.

In the case of `O=C(O)C(=O)CS(=O)(=O)O` [βSP], the X-ray crystal structure ([1]; OAA analogue, binary Mn2+ complex and ternary complex with GTP, closed) is reported as “All three ternary complexes (βSP‐GTP, oxalate‐GTP, and PGA‐GDP) in addition to βSP alone”.
